Experimental data reported in patent US20110166206A1, “UBIQUILIN REGULATION OF PRESENILIN ENDOPROTEOLYSIS, AND SUPPRESSION OF POLYGLUTAMINE-INDUCED TOXICITY IN CELLS” (UNIVERSITY OF MARYLAND BIOTECHNOLOGY INSTITUTE, priority 2005, published 2011).
Square brackets hold non-standard residues; d marks the D form. Peptide text beside a SMILES is read from it. * marks the point of attachment. Nle = CCCC[C@H](N)C(=O)O; Cbz = O=C(OCc1ccccc1)*

How the values were obtained:
[1] = tested on: PS2 NTF; assay: Proteasome inhibitor treatment of PS2 inducible cells, PS2 NTF immunoblot; type: cell-based, human; details: 16 h treatment
Protocol: (§1) (A) PS1 and PS2 inducible cells were treated with various classes of proteasome inhibitors for 16 hours. Afterwards, cell lysates were collected, separated by SDS-PAGE, and analyzed by immunoblotting. PS1 NTF levels and PS2 NTF levels were reduced by treatment with all of the different inhibitors albeit to varying extents.
(§2) PS2 inducible cells were treated for 16 h with 10 uM clasto-lactacystin β-lactone, N-Acetyl-Leu-Leu-Nle-CHO (ALLN), 50 uM epoxomicin, 40 uM MG132, and […]. Afterwards, lysates were collected and the fragment levels were analyzed by SDS-PAGE and immunoblotting.
(§3) First, to rule out that MG132 inhibits another factor involved in PS cleavage, PS1 and PS2 inducible cells were treated with a series of different known proteasome inhibitors including clasto-lactacystin p-lactone, ALLN, epoxomicin, MG132, and MG262. […] While each inhibitor had varying effects on the extent of reduction, PS1 NTF levels were reduced by an average of 1.3-fold and PS2 NTF levels were reduced by an average of 1.4-fold. At first glance the fold reduction appears modest; however, considering that degradation of the PS fragments by the proteasome has also been blocked and that fragment levels are tightly regulated, the reduction in PS fragment levels appears significant. Furthermore, it was considered unlikely that all […] proteasome inhibitors used here caused nonspecific inhibition of an unknown factor involved in PS endoproteolysis. Instead, it was considered that the most straightforward interpretation of the results is that, in accord with the mode of action the drugs, they all inhibit the proteasome, which is involved in PS endoproteolysis.

[2] = tested on: PS1 NTF; assay: Proteasome inhibitor treatment of PS1 inducible cells, PS1 NTF immunoblot; type: cell-based; details: 16 h treatment
Protocol: as §1, §2, §3

[3] = tested on: PS1 and PS2 NTF and CTF; assay: MG132 treatment of UBQLN-transfected PS1 and PS2 stable cell lines, fragment immunoblot; type: cell-based; details: proteasome inhibitor treatment
Protocol: FIG. 3. […] (A) PS1 cells lines that were either not induced (lanes 1 and 3) or induced with PonA (lanes 2 and 4) and either left untransfected (lanes 1 and 2) or transfected with UBQLN1 expression plasmids (lanes 3 and 4) were treated for 7 h with MG132 after which protein lysates were collected and analyzed by immunoblotting. […] For clarification, if UBQLN did increase the turnover rate then by blocking degradation, turnover would be stopped and PS fragment levels would be similar, or increase, relative to that of untransfected cells. […] Densitometric analysis was used to quantify the extent of reduction. Each experiment was repeated more than three times and similar trends were observed.
(B) Same experiment and results as described in (A) except that PS2 inducible cell lines were used to examine PS2 NTF and CTF levels. […] UBQLN exerts greater effects on PS2 probably because it interacts more strongly with PS2, see [43].
HeLa and HEK293 cells were grown in DMEM supplemented with 10% FBS. PS1 and S2 inducible cell lines were generated by transfection of the pERV-expressing HEK293 cell line (Stratgene, IaIolla, Calif.) with FL human PS2 cDNA under the control of ponasteroneA (PonA)-inducible cassette in plasmid pEGSH (Stratagene). Stable integration of the pEGSH plasmid was achieved by selection for hygromycin resistance. […]

[4] = tested on: PS2 NTF; assay: Proteasome inhibitor wash-out time course with CHX in PS2 stable cells; type: cell-based, human
Protocol: (B) PS2 inducible cells were treated continuously with MG132 or MG262 or the drugs were washed from half the cultures after 7 hours of incubation with the drugs. Immediately after washing, CHX was added to all of the cultures to inhibit protein synthesis. Lysates were collected at two hour time points thereafter and the PS fragment levels were analyzed by SDS-PAGE and subsequent immunoblotting. […] Please note that because PS2 expression was not been induced with PonA, the FL protein is not detectable. The filter was reprobed with anti-p27 antibody to monitor recovery of proteasome activity. p27 has a half-life of two hours; therefore once proteasome inhibition is relieved the level of p27 begins to decline (third panel, right), whereas under constant proteasome inhibition its levels remain steady (third panel, left), serving as an important control.
(C) Densitometric analysis was used to quantify the extent of increase in PS2 NTF levels in conditions of constant proteasome inhibition and upon removal of proteasome inhibition. At time=0 the NTF levels in the washed sample is equal to that of MG132 treated sample; however, NTF levels quickly begin to […], whereas in the MG132 treated samples PS2 NTF levels stay steady.
PS2 inducible cells were grown in two sets on […]. Both sets were treated with MG132 or MG262 (also called Z-Leu-Leu-Leu-B(OH)2, Boston Biocem). 7 h later, the drugs were washed off one set by rinsing twice with warm 1×PBS and replacing with fresh DMEM supplemented with 10% FBS, allowing the proteasomes to recover. Also at that point, cyclohexamide (final cont. […]) was added to all dishes. Lysates were collected at two hour time points and the fragment levels were analyzed by SDS-PAGE and subsequent immunoblotting.
To directly address whether the proteasome is responsible for endoproteolysis of PS2, another time course experiment utilizing proteasome inhibitors was devised. […]

[5] = tested on: endogenous PS1 NTF; assay: UBQLN overexpression in wild-type HEK293 cells, endogenous PS1 NTF immunoblot; type: cell-based; details: normal HEK293 cells
Protocol: (C) Endogenous PS fragment levels were analyzed in HEK293 cells that were transfected with increasing amounts of UBQLN1 or UBQLN2 expression plasmids. Equivalent amounts of protein lysates were separated by 10% SDS-PAGE and immunoblotted with anti-PS1 NTF antibody. The filter was then reprobed with anti-ubiquilin antibody to ensure overexpression of UBQLN and with an anti-actin antibody to ensure equal protein loading. Overexpression of UBQLN decreases PS1 NTF levels and the extent of reduction was quantified again by densitometric analysis. Graph is quantification of untransfected and […] UBQLN cDNA plasmid transfected lanes.
Preparation of protein lysates, SDS-PAGE and immunoblotting of proteins were described previously. Primary antibodies used were rabbit anti-PS2 loop and rabbit anti-PS2 NH,-terminus, both raised to GST-PS2 fusion proteins; rabbit anti-ubiquilin [43] which reacts with UBQLN1 and UBQLN2 polypeptides; rat anti-PS1 NH2,-terminus (Chemicon International, Temecula, Calif.); rabbit anti-PS1 loop raised to GST-PS1 fusion proteins; goat anti-p27 and goat anti-actin (Santa Cruz Biotechnology, Santa Cruz, Calif.); mouse monoclonal anti-tubulin (Sigma-Aldrich, St. Louis, Mo.); rabbit anti-nicastrin (Abeam, Cambridge, Mass.), rabbit anti-Pen-2 (Zymed, San Francisco, Calif.); and rabbit anti-Aph-la (Covance, Berkeley, Calif.). […]

| Compound | PS2 NTF levels [1] | PS1 NTF levels [2] | PS fragment levels, MG132 treated vs MG132 untreated cells [3] | rise in PS2 NTF levels after inhibitor washed out ([4]; 12 hours after wash-out, CHX added) [fold] | PS2 NTF levels under continuous inhibitor ([4]; inhibitor present for the continuous duration) | PS2 fragments after removal of inhibitor ([4]; proteasomes recover activity) | reduction of endogenous PS1 NTF levels [5] |
| --- | --- | --- | --- | --- | --- | --- | --- |
| CCCC[C@@H](C=O)NC(=O)[C@H](CC(C)C)NC(=O)[C@H](CC(C)C)NC(C)=O [ALLN, N-Acetyl-Leu-Leu-Nle-CHO] (Ac-Leu-Leu-[Nle]-aldehyde) | reduced | reduced |  |  |  |  |  |
| CC(C)C[C@@H](C=O)NC(=O)[C@H](CC(C)C)NC(=O)[C@H](CC(C)C)NC(=O)OCc1ccccc1 [MG132] (Cbz-Leu-Leu-Leu-aldehyde) | reduced | reduced | reduced PS fragment levels | 1.8 | remained relatively constant |  |  |
| CC(C)C[C@H](NC(=O)[C@H](CC(C)C)NC(=O)[C@H](CC(C)C)NC(=O)OCc1ccccc1)B(O)O [MG262, Z-Leu-Leu-Leu-B(OH)2] | reduced | reduced |  |  |  | notable increase in PS2 fragments |  |
| CC(C)[C@H](O)[C@@]12NC(=O)[C@H](C)[C@@H]1OC2=O [clasto-lactacystin p-lactone, clasto-lactacystin β-lactone] | reduced | reduced |  |  |  |  |  |
| CC[C@H](C)[C@H](NC(=O)[C@H]([C@@H](C)CC)N(C)C(C)=O)C(=O)N[C@H](C(=O)N[C@@H](CC(C)C)C(=O)[C@@]1(C)CO1)[C@@H](C)O [epoxomicin] | reduced | reduced |  |  |  |  |  |
| UBQLN2: ubiquilin-2, 72% identical to UBQLN1, overexpressed from an expression plasmid |  |  |  |  |  |  | approximately 1.7 fold |
